Experimental data reported in US9458118B2, “Sodium channel modulators for the treatment of pain and diabetes” (CHROMOCELL CORPORATION, priority 2013, dated 2016).

Assays:
rats = test: Acetic acid writhing model in rats; assay type: in vivo, rat; conditions: doses of 10 to 30 mg/kg, intraperitoneal route
Description: The Acetic Acid Writhing Model is associated with visceral pain (abdominal pain, such as stomach pain, and pain caused by, for example, bile duct congestion and kidney stones). A writhing test assesses acute peritoneovisceral pain.
After acclimation of 2-3 days, a test compound, positive control or vehicle control was administered by intraperitoneal injection (i.p.) or by oral gavage 15-30 minutes prior to administration of acetic acid. The time of administration of test compound was recorded. For mice: Method A: 0.6% Acetic acid solution in saline was injected i.p. in a volume of 10 ml/kg; Method B: 1.2% Acetic acid solution in saline was injected i.p. in a volume of 5 ml/kg. For rats: 4% acetic acid in saline was injected i.p in a volume of 2 ml/kg at T=0 minutes. Each animal was placed in a clear plastic cage. At T=5 minutes, the number of writhing movements was counted over a 45 minute period. Alternatively, the writhing movements were counted over a 5-minute period and repeated every 5 minutes, starting at T=5 minutes over a 45-minute period.
For each compound tested, the individual score was obtained by calculating the accumulated writhing movements for the time period studied. […]

NaV1.7 = target: T1, NaV1.7 (Homo sapiens, UniProt Q15858); test: FDSS membrane potential in-vitro assay; assay type: cell-based; conditions: stimulation with veratridine and scorpion venom
T1 construct: expressed in transfected cells
Description: In vitro assays were performed in recombinant cell line that stably express a heterotrimeric protein of interest from an introduced nucleic acid encoding the alpha subunit (hNav1.7, SCN9A), the beta subunit (SCNB1) and the beta subunit (SCNB2). The cell line was engineered using Human Embryonic Kidney 293 cells as host background. Additional cell lines stably expressing recombinant Nav1.7 or Nav1.5 alpha subunit alone or in combination with various beta subunits can also be used in in-vitro assays. […]
Blue membrane potential dye (Molecular Devices Inc.), or membrane potential-sensitive dye, HLB021-152 (AnaSpec) were combined with a fluorescence quencher, e.g., Dipicrylamine (DPA), Acid Violet 17 (AV 17), Diazine Black (DB), HLB30818, FD and C Black Shade, Trypan Blue, Bromophenol Blue, HLB30701, HLB30702, HLB30703, Nitrazine Yellow, Nitro Red, DABCYL (Molecular Probes), FD and C Red NO. […]
The cells were incubated with the membrane potential dye for 45-60 mins at 37° C. The dye-loaded assay plates were then placed in the high-throughput fluorescent plate reader (Hamamatsu FDSS). The kinetic read was started with assay plate imaging every second. […]
Control response elicited by veratridine and scorpion venom with buffer only (without test compounds added) was taken as the maximal response. […] The data were analyzed using GraphPad Prism software to determine the […] value for the test compound. […]

Sprague-Dawley rats = test: Partial sciatic nerve ligation (PSNL) model, behavioral tests; assay type: in vivo, rat; conditions: oral route, measured 30 minutes post dose
Excerpt: 250-350 g male Sprague-Dawley rats from appropriate animal resources were anesthetized with 2.5% isoflurane. A hind leg was shaved, and the skin was sterilized with 0.5% iodine and 75% alcohol. All surgical instruments were sterilized before surgery and between animals. An incision (1 cm) was made at the middle of the thigh in parallel with the muscle and sciatic nerve distribution. The muscle was exposed and dissected at the joint of two muscles (biceps femoris) indicated by the light colored (white) fascia line. […]
The analgesic effect of the test compound was expressed as a percent recovery (% Recovery) relative to the sham control group baseline and calculated according to the formula: % Recovery=100%−{[(sham mean-test compound mean)/(sham mean-vehicle mean)]×100%} wherein “sham mean” refers to average score in the sham-operated group; “test compound mean” refers to average score in the PSNL-group (animals with partial sciatic nerve ligation) or diabetic group (animals treated with STZ) treated with a test compound; “vehicle mean” refers to average score in the PSNL-group or diabetic group treated with vehicle only. […]
Animals were placed under clear plastic boxes above a wire mesh floor, which allowed full access to the paws. […] Mechanical paw withdrawal thresholds (PWTs) were measured with the up-down testing paradigm. […]

diabetic rats = test: Anti-diabetic and analgesic effect after chronic dosing in the rat STZ model of diabetes; assay type: in vivo
Description: 250-350 g male Sprague-Dawley rats from appropriate animal resources were used. Type I diabetes was induced by a single injection, (intraperitoneally, intravenously or intramuscularly) of 50-100 mg/kg of streptozotocin (STZ, Sigma Chemicals, St. Louis, Mo. or VWR) freshly dissolved in sodium citrate (0.01 M, pH 4.5). Sham animals were given either saline or same vehicle injection. Following a wait time of about two days, inducement of diabetes was confirmed in STZ-injected rats by measuring the plasma glucose concentrations in blood samples from the tail vein after a fast of 6 hours. The glucose level was assayed using a mini glucose monitor (kit for AlphaTRAK 2 meter, available from Abbott Laboratories). Screening for hyperglycemia in STZ-injected animals was done, with only animals with a final blood glucose level ≧300 mg/dl being selected for the study. Glucose levels in the sham animals remained normal. Other parameters (water intake, food intake, and bodyweight) were monitored before the treatment with a test compound and after the cessation of the treatment.
A Compound provided herein is tested in the rat STZ model of diabetes by chronic administration of the Compound for at least 7 days to evaluate analgesic and antidiabetic effects of the Compound. The analgesic effect of the Compound can be evaluated using behavioral tests (e.g., von Frey test, plantar test, and paw pressure test described herein below). The anti-diabetic effect of the Compound can be evaluated based on the improvement in the glucose level, food intake, water intake in the compound treated group compared to the untreated vehicle group and the normal, non-diabetic sham control group.
Diabetes mellitus was induced in rats as described in the section entitled “The Streptozotocin (STZ)-Induced Model of Diabetic Neuropathy” above.
The baseline glucose levels, daily food and water intake and behavioral tests (von Frey, paw pressure and plantar tests) were measured for each animal once weekly for 28 weeks, and once every 2-4 weeks for an additional 28-30 weeks. At a selected week (started from week 6) for a compound test, diabetic rats were divided into two test groups: a vehicle control group and a test compound treated group (n=10 each group). A sham group (saline only without STZ i.p. injection, n=10) was added as a normal, non-diabetic control group. To minimize animal stress associated with repeated daily handling, the compound treated diabetic group of animals received the test compound at a daily dose of 60 mg/kg in their drinking water containing 2% PEG600 and 1% glycofurol (the test compound concentration in the drinking water was based on the individual animal's average daily water consumption as determined the pre-dosing period, which averaged 0.1-0.11 mg/ml). The vehicle control group received drinking water containing 2% PEG600 and 1% glycofurol without the test compound. The treatment continued for 9 days. On day 10 drinking water with test compound or vehicle (2% PEG600 and 1% glycofurol) was replaced with plain drinking water in all groups. The monitoring of glucose levels, food and water intake as well as behavior tests continued for additional 28-30 weeks. […] A gradual, significant reversal of up to 90% of mechanical allodynia (von Frey test) was achieved after 9 days of treatment.
FIGS. 1-3 show food intake, glucose level, and water intake, respectively, for the vehicle control group, the test compound treated group (compound 49, 60 mg/kg/day), and the sham group. […] The significant reduction of food intake, glucose level, and water intake of the compound treated group compared to the vehicle control group continues through week 52. […] Since the standard deviation in the sham groups are less than 5%, no error bars are shown.

[1] = diabetic rats, 60 mg/kg/day in drinking water, 9 days
[2] = measured on day 11, two days after compound withdrawal

T1 sequence (Q15858 whole entry): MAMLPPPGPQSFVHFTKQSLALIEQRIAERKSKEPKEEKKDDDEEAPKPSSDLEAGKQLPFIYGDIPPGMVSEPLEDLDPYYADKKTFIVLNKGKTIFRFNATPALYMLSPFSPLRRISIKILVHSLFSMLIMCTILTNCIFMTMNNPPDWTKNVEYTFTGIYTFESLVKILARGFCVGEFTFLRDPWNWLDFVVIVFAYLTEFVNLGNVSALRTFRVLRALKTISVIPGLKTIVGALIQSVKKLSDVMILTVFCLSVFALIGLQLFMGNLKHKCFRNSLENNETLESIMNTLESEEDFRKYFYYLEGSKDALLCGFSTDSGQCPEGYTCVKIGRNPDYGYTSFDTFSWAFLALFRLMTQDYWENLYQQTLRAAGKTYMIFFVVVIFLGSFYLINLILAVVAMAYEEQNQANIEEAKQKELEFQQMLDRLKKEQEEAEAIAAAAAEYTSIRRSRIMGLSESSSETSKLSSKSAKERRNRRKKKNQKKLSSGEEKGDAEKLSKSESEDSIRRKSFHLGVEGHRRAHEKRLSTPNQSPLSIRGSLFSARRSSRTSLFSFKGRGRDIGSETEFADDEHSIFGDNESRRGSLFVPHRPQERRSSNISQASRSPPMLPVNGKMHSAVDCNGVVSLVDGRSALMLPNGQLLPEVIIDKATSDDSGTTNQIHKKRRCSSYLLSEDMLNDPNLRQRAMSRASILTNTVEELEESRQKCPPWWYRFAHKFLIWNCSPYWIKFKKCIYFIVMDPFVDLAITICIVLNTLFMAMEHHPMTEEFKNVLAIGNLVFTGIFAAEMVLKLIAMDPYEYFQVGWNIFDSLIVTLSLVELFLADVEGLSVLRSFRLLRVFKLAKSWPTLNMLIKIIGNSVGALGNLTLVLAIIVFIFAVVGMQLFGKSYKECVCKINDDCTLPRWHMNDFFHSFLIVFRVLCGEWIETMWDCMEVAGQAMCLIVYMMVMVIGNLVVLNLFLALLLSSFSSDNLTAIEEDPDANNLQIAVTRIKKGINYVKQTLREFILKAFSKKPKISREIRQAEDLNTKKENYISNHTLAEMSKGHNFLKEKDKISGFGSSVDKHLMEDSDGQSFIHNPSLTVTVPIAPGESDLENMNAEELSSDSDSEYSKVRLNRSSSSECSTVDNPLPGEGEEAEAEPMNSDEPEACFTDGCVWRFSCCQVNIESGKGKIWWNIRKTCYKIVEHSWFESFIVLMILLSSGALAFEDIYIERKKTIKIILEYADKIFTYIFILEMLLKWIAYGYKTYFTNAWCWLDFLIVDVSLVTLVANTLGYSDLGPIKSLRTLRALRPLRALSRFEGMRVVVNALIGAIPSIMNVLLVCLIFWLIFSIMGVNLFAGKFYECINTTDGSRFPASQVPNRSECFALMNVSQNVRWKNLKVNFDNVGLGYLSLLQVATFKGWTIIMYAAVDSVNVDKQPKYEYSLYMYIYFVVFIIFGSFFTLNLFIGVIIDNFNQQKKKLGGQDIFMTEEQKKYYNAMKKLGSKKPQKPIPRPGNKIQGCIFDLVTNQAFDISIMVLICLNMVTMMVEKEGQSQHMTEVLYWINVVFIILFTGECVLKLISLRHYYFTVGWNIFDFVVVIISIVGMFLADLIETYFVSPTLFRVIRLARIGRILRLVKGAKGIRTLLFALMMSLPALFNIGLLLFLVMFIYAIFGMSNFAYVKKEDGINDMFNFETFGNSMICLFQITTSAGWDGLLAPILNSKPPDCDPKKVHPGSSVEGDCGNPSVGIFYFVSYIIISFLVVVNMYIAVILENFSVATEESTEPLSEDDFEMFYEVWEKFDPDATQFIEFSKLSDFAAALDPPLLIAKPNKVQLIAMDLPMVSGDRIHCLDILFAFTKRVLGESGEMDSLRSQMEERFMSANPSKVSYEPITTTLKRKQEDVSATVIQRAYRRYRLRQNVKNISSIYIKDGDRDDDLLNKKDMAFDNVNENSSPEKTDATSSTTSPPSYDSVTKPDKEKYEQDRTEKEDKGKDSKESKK
T1 sequence (Q07699 19-218 partner): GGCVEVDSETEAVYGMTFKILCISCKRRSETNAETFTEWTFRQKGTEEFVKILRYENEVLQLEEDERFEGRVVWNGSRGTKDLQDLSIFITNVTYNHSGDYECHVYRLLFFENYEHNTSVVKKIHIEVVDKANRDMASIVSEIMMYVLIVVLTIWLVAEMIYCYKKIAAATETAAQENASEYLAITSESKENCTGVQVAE
T1 sequence (O60939 30-215 partner): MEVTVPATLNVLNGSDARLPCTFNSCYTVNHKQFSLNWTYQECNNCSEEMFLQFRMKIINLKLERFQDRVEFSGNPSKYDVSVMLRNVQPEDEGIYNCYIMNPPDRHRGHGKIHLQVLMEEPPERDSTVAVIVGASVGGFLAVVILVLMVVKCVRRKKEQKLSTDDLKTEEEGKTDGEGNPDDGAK

Row | SMILES | reduction in pain (writhing) relative to vehicle control (rats) | IC50 (NaV1.7) | effect in the tactile allodynia test relative to vehicle control (Sprague-Dawley rats) | food intake compared to the vehicle control group (diabetic rats; FIG. 1, 60 mg/kg/day for 9 days, reduction continues through week 52) | glucose level compared to the vehicle control group (diabetic rats; FIG. 2, 60 mg/kg/day for 9 days, reduction continues through week 52) | water intake compared to the vehicle control group (diabetic rats; FIG. 3, 60 mg/kg/day for 9 days, reduction continues through week 52) | general appearance and/or health (diabetic rats; after the treatment stopped on day 9) | mechanical pain (paw pressure test) (diabetic rats; [1]) | tachyphylaxis (diabetic rats; [1]) | thermal pain (plantar test) (diabetic rats; [1]) | paw pressure test threshold after compound withdrawal (diabetic rats; [2]) | plantar test threshold after compound withdrawal (diabetic rats; [2])
1 | O=C(O)CNC(=O)c1cc(-c2cc(Cl)ccc2Oc2cc(F)c(S(=O)(=O)Nc3ncns3)cc2Cl)ccn1 [Compound 2, 2-(4-(2-(4-(N-(1,2,4-thiadiazol-5-yl)sulfamoyl)-2-chloro-5-fluorophenoxy)-5-chlorophenyl)picolinamido)acetic acid] | 48-58% |  |  |  |  |  |  |  |  |  |  | 
2 | C#CCN(CCCc1cc(Cl)ccc1Oc1cc(F)c(S(=O)(=O)Nc2nccs2)cc1Cl)CC(=O)O [Compound 54, 2-((3-(5-chloro-2-(2-chloro-5-fluoro-4-(N-(thiazol-2-yl)sulfamoyl)phenoxy)phenyl)propyl)(prop-2-yn-1-yl)amino)acetic acid] |  | < 100 nM | no significant effect |  |  |  |  |  |  |  |  | 
3 | NC(=O)CNCCCc1cc(Cl)ccc1Oc1cc(F)c(S(=O)(=O)Nc2cscn2)cc1Cl [Compound 49, 2-((3-(5-chloro-2-(2-chloro-5-fluoro-4-(N-(thiazol-4-yl)sulfamoyl)phenoxy)phenyl)propyl)amino)acetamide] |  |  | no significant effect | significantly reduced | significantly reduced | significantly reduced | improvements in general appearance and/or health | rapid and sustained improvement | no tachyphylaxis | rapid and sustained improvement | returned to the pretreatment baseline | returned to the pretreatment baseline
